Series [1] deals with Pfeiffer cells. Put plainly: Growth inhibition of Pfeiffer cells in a long term (14 days), CellTiter-Glo. Format: cell-based, Human. Particulars: Homo sapiens, 336 h, 14 days, read-out: Pfeiffer (14 days) IC50. The essentials: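 Pfeiffer DLBCL cells in RPMI 1640 with 10% FBS were treated for 14 days with a 9-point, three-fold compound series (final 0.003-20 μM or 0.3-2000 nM, 0.2% DMSO). Medium and compound were refreshed with cell dilution on days 4, 7 and 11. Viability was read by CellTiter-Glo luminescence, and IC50 values were calculated.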

Series [2] concerns the target PRC2 enzyme (Homo sapiens (Human), UniProt O75530). Put plainly: PRC2 enzyme activity, TR-FRET method. In kind it is biochemical. The essentials: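 Enzyme preincubated with compound 30 min at room temperature; reaction started with biotin-labeled histone H3 peptide and SAM, run 4 h at room temperature.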
A short description of series [3]: Liver microsomal stability (mouse). In kind it is in vitro ADME.
Series [4] in a line: Oral pharmacokinetics in rats. In kind it is in vivo. Particulars: male, SD, plasma, rat, intragastric, 3 mg/kg. The protocol:
1. Healthy male SD rats were used as test animals, EED226, […]-07 (3 mg/kg) were administered intragastrically, and the drug concentrations in rat plasma were determined by LC/MS/MS method at different time points after drug administration. The pharmacokinetic behavior of the compounds of the present invention in rats was studied, and the pharmacokinetic properties were evaluated. 2. The test animals were healthy adult male SD rats, with 3 rats in each group, purchased from Shanghai Xipuer-Bikai Laboratory Animal Limited Company. 3. Drug preparation: Compounds EED226, […] were dissolved in DMSO/0.5% HPMC (5/95, v/v) for preparation. The compound SL-ZYE-07 was dissolved in 0.5% HPMC (containing 0.5% Tween 80), vortexed, and sonicated to disperse the solid matter uniformly to obtain a pale white suspension. 4, Operation: EED226, […]-07 were administered to rats by intragastric administration (3 mg/kg), 45 μL of blood was taken through the femoral vein at 0.25, 0.5, 1, 2, 4, 8, 24 hour after administration, and centrifuged in a heparinized centrifuge tube for 5 min, and the plasma samples were separated for analysis. The contents of test compounds in rat plasma after intragastric administration of different compounds were determined by Liquid chromatography-mass spectrometry (LC-MS/MS).

Chain of PRC2 enzyme (O75530 whole entry): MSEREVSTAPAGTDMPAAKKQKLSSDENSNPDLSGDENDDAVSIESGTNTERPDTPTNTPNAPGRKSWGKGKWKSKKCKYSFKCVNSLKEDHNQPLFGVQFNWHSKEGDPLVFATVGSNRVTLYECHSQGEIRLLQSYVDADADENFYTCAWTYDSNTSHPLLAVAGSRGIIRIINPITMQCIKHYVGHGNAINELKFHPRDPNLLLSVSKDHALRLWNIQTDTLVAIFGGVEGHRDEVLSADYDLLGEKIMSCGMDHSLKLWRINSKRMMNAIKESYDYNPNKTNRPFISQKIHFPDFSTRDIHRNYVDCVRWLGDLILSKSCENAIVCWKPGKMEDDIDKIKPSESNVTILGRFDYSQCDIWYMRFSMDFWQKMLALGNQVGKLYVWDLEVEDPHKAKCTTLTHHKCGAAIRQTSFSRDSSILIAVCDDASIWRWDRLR
Chain of PRC2 enzyme (Q15910 whole entry partner): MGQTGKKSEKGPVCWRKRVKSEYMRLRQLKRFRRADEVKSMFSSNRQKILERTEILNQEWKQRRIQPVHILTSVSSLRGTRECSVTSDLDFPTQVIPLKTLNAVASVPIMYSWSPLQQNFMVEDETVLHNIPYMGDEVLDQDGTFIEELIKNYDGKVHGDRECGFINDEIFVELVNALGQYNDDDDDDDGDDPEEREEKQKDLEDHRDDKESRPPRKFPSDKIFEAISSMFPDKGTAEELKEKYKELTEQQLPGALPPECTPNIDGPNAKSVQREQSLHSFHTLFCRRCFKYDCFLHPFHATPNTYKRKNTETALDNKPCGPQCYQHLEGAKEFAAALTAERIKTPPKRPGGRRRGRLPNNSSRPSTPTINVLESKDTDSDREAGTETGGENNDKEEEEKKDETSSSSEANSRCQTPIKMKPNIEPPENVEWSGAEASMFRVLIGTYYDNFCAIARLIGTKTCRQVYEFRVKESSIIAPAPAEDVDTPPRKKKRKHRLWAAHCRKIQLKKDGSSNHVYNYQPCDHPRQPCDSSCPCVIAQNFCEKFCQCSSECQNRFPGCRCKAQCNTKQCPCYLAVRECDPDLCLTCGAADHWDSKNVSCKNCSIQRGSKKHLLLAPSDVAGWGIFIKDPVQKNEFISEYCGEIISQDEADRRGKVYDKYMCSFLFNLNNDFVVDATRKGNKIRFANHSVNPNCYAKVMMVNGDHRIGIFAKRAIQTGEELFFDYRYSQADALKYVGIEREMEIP
Chain of PRC2 enzyme (Q15022 whole entry partner): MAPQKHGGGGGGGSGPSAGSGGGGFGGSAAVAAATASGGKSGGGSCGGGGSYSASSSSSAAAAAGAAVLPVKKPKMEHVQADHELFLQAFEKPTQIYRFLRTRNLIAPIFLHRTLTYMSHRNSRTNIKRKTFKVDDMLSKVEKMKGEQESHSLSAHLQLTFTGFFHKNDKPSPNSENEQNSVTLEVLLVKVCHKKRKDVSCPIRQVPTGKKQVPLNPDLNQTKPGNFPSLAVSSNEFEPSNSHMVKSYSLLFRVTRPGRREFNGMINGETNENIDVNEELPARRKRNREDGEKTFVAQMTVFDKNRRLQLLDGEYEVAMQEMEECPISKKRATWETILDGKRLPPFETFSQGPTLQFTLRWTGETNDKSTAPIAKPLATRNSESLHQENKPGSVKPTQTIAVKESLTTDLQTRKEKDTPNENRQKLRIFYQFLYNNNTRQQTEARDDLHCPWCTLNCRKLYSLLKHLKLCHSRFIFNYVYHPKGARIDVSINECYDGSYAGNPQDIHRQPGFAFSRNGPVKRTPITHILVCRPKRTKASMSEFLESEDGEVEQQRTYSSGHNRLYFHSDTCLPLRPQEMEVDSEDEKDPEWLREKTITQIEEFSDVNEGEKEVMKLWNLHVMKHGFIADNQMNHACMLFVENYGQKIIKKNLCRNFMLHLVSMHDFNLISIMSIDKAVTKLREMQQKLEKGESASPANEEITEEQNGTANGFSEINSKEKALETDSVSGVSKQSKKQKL

As to `CS(=O)(=O)N1CC=C(c2cnc(NCc3c(F)ccc4c3CCO4)n3cnnc23)CC1` [E-Y13], the half-inhibitory concentration (IC50) in series [1] came to 1 nM. Besides, in series [2], the IC50 turned out to be 19 nM. Moreover, in series [3] (mouse liver microsomes), the “Clearance rate in vivo Clint In Vivo Extpl” value was determined as 1.50 mL/min, the “Intrinsic clearance rate in vivo Clint In Vitro” value turned out to be 22.2 mL/min/gprot, the “Liver clearance rate Clint Hep In Vivo Extpl” value stood at 1.00 mL/min and the “Metabolic bioavailability MF %” value is on record as 66.7%. In series [3] (mouse, liver microsomes, pH 7.4, mouse liver microsomes, read-out: Half life T-half), the half-life amounted to 1.58 h. In addition, the area under the curve AUC(0-t) in series [4] worked out at 529 ± 150 ng·h/mL. In addition, in series [4] (extrapolated to infinity, read-out: AUCINF_obs), the AUC(0-inf) was 539 ± 150 ng·h/mL. Besides, in series [4] (read-out: Average residence time MRTINF_obs), the MRT inf was 2.06 ± 0.484 h. For the same compound, the half-life in series [4] (read-out: Half life T1/2 (converted)) is 1.37 ± 0.212 h. For the same compound, the Cmax in series [4] (read-out: Peak concentration Cmax) was determined as 376 ± 273 ng/mL.

These data come from patent US11013745B2, “Triazolopyrimidine, triazolopyridine compounds, and the composition thereof for treating PRC2-mediated diseases” (SHANGHAI INSTITUTE OF MATERIA MEDICA, CHINESE ACADEMY OF …, priority 2017, dated 2021).
